In ChEMBL document CHEMBL3879898, “Substituted pyrazolyl compounds for the treatment of inflammationantiinflammatory agents; rheumatic diseases; anticancer agents” (2007):

Target: T1, Inhibitor of nuclear factor kappa-B kinase subunit beta (Homo sapiens, UniProt O14920)
T1 sequence (O14920 whole entry): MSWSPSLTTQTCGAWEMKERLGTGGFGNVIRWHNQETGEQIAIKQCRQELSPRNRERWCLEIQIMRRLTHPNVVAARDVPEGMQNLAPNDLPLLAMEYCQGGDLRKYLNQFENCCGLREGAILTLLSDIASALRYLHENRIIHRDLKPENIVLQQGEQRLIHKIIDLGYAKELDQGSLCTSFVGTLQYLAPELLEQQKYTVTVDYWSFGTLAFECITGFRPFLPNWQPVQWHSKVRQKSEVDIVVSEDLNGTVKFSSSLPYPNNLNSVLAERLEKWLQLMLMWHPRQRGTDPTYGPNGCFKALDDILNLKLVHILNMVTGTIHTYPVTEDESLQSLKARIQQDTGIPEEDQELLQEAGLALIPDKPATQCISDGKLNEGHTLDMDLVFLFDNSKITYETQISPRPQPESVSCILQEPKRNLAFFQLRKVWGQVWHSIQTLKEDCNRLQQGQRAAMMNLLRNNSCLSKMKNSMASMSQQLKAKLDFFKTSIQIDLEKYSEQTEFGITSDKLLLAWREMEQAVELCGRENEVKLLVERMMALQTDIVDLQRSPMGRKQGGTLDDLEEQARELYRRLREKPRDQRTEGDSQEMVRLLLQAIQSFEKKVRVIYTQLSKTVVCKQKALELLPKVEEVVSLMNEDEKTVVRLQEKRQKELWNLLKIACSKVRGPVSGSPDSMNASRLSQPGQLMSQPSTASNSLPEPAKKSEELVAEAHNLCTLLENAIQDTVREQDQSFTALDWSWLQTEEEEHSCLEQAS
Assay: Inhibition of human recombinant C-terminal FLAG-epitope-tagged IKK2 expressed in baculovirus infected insect cells using biotinylated IkappaBalpha peptide as substrate in presence of [gamma-33P]-ATP after 30 mins by resin-based scintillation counting method

SMILES | IC50
CC(=O)N1Cc2c(C(N)=O)nn(-c3ccc(F)cc3)c2-c2cc(NC(=O)c3cccnc3Cl)ccc21 | < 1 µM
CC(=O)N1Cc2c(C(N)=O)nn(-c3ccc4c(c3)OCO4)c2-c2cc(NC(=O)c3cccnc3Cl)ccc21 | < 1 µM
NC(=O)c1nn(-c2ccc3c(c2)OCO3)c2c1COc1ccc(NC(=O)c3cccnc3Cl)cc1-2 | ≤ 1 µM
